{"source": "patent US20240398775A1", "about": "“PHARMACEUTICAL COMPOSITION FOR USE IN TREATING COGNITIVE DECLINE OR FOR USE IN TREATING OVERWEIGHT OR OBESITY” (University of the Ryukyus, priority 2021, published 2024)", "key": {"MAP2, GluA1, GluA2, DCX": {"tested_on": "MAP2, GluA1, GluA2, DCX", "test": "Immunohistochemical analysis (MAP2, GluA1, GluA2, DCX) of hippocampus", "format": "in vivo, mouse", "excerpt": "Mouse brains were perfusion-fixed with 4% paraformaldehyde, embedded in paraffin, and cut into 4 micrometer thick sections to be used for immunohistochemical analysis of monoclonal antibodies against DCX (E-6 monoclonal, 1:50, Santa Cruz Biotechnology Inc, Dallas, USA), MAP2ab (AP-20 monoclonal, 1:100, SIGMA-ALDRICH, St. Louis, USA), GluA1 ([…] polyclonal, 1:100, EMD Millipore Corp., Burlington, USA), and GluA2 (AB 1768-1 polyclonal, 1:5, EMD Millipore Corp., Burlington, USA).\nThe immunostained region in each of the expression regions of MAP2, GluA1, and GluA2 was acquired using a ZVI format AxioVision (Carl Zeiss, Germany) microscope (objective lens 20×). Generation of data image processing with image segmentation was performed using machine learning with ZEN Intelliesis software. 1000 or more cells were examined in each group. One-way variance analysis was used for testing variance among the three groups excluding data of 3SD or higher. Then, the following number of samples was used."}, "Aβ": {"tested_on": "Aβ", "test": "Aβ accumulation in hippocampus and cerebral cortex of NL-G-F(−/−) mice", "format": "in vivo, mouse", "conditions": "perampanel 5 mg/kg from 6 to 15 weeks of age", "excerpt": "The effect of perampanel administration on Aβ accumulation in the hippocampal dentate gyrus (DG) CA1 and the cerebral cortex (Cx) in the Alzheimer's dementia model mouse (NL-G-F(−/−)) is shown. The X axis indicates the intensity of fluorescence, and the Y axis indicates the fluorescence count."}, "Aβ42/Aβ40": {"tested_on": "Aβ42/Aβ40", "test": "Aβ42/Aβ40 ratio of neurosphere culture supernatant by EIA", "format": "cell-based", "conditions": "neurospheres from NL-G-F(−/−) mouse embryonic hippocampus, perampanel 50 μM, day 2 and day 4 of culture", "excerpt": "Biomarkers of Alzheimer's dementia include the Aβ42/Aβ40 ratio of cerebrospinal fluid (CSF) and plasma levels, phosphorylated tau (P-tau) in threonines 181 and 217, and neurofilament lite (NfL) (Curr Opin Neurol 2021 1 266-274). The Aβ42/Aβ40 ratio is considered to be able to predict Aβ accumulation in PET (Doecke J D et al., Neurology 2020). Hippocampus on 17 to 19 days of NL-G-F(−/−) mouse embryonic life was taken out and cultured by a Neurosphere method by Brewer G J et al. (Nat Protoc 2007 2, 1490-1498), and a supernatant was measured by an EIA method using this culture system. The change in the Aβ42/Aβ40 ratio by the perampanel (50 μM/methyl cellulose 4 μL) was analyzed. In 4 μL of a 0.5 w/v % aqueous solution of methyl cellulose 400, 5×10^4 spheres smaller than 50 μm in diameter were cultured in 50 ml Falcon Flask coated with poly-D-lysine/laminin, and Aβ42 and Aβ40 of the supernatant were measured by EIA method on the second day (FIG. 29A) and the fourth day (FIG. 29B) of culture. The solvent was administered 12 hours after seeding."}, "NL-G-F mice": {"tested_on": "NL-G-F mice", "test": "Novel object recognition test in Alzheimer's dementia model mice", "format": "in vivo, mouse", "conditions": "NL-GF mice (n=5), perampanel 5 mg/kg body weight/day in CD diet from 8 to 13 weeks of age", "experimental": "Mice of CD, HFD, and HFD with PER treatment were handled daily for 5 minutes for 5 days prior to the start of the novel object recognition test. PER means the perampanel, which is an AMPA receptor antagonist. The mice were habituated to a 35 cm square, 25 cm high box for 10 minutes on the first day, and were given 2 identical objects (familiar objects) for 10 minutes on the second day. On the third day, one of the familiar objects was replaced with a novel object of different shape and color (FIG. 2F). […] The search time for each object was measured by offline analysis (47).\nNL-GF mice begin to accumulate in the brain of Aβ from 8 weeks of age (Nat. Neurosci. 2014 17, 661-4). In this example, the AD model mouse (n=5) was fed a CD diet containing a perampanel at a dose of 5 mg/kg body weight/day from 8 to 13 weeks of age, and the mouse was subjected to a novel object recognition test. In the negative control (n=5), a normal CD diet without perampanel was taken.\nNL-G-F(−/−) mice, a dementia model, were administered with memantine (mema), exercise, memantine and exercise, memantine and perampanel, and perampanel alone (5 mg/kg or 10 mg/kg), and subjected to behavioral experiments. As the behavior test, a novel object recognition test and a hippocampus function-dependent fear conditioning test were performed. […]"}, "HFD-fed mice": {"tested_on": "HFD-fed mice", "test": "Five-trial social memory assay", "format": "in vivo, mouse", "conditions": "PER treatment", "experimental": "Five-trial social tests were performed as previously described (19). In summary, subject mice with CD, HFD, and HFD with PER treatment were housed individually starting 7 days before the study to establish territory dominance. On the day of the test, a female mouse was presented in the cages of subject male mice, which is a subject (FIG. 2G), and 5 min trials were performed 4 times in succession at 10 min intervals. In the fifth trial, a novel female mouse was presented (FIG. 2G) and the duration of the social investigation was recorded."}, "NL(−/−) mice": {"tested_on": "NL(−/−) mice", "test": "Bicculine-induced epileptiform reactions in NL(−/−) mice", "format": "in vivo, mouse", "conditions": "perampanel administration", "excerpt": "Epilepsy occurs more frequently in AD patients than in the control population (Pascal E 2012), and the incidence of epilepsy increases to 7 to 21% (Amatniek et al., 2006; Hauser et al., 1986; Mendez and Lim, 2003) in sporadic AD patients and 30% in early-onset familial AD (FAD) (Palop and Mucke, 2009; Larner and Doran, 2006). Early latent hippocampal hyperexcitability was detected in AD patients (Lam A D et al., Nat Med 2017). […] In particular, in NL-G-F(−/−) mice (15 to 17 weeks old), significant enhancement of epileptiform reactions in the CA1 and CA2 regions was confirmed by Bicculine (BIC) (refer to FIG. 32). […] In an animal model of AD in which amyloid β is accumulated, it has been reported that an epileptiform reaction is enhanced (Busche, 2008; 2012). Also in this experiment, epileptic induction by bicrine was enhanced in both NL(−/−) mice and NL-G-F(−/−) (15 to 17 weeks old (W)) as compared with control mice."}}}
{"smiles": "N#Cc1ccccc1-c1cc(-c2ccccn2)cn(-c2ccccc2)c1=O", "note": "[PER, 3-(2-cyanophenyl)-5-(2-pyridyl)-1-phenyl-1,2-dihydropyridine-2-one]", "values": [{"measurement": "integrity of dendritic arbors in CA1 (anti-MAP2 antibody staining)", "setting": "MAP2, GluA1, GluA2, DCX; HFD mice with PER", "result": "completely restored"}, {"measurement": "GluA2/GluA1 ratio (immunostaining)", "setting": "MAP2, GluA1, GluA2, DCX; HFD mice with PER treatment", "result": "increased"}, {"measurement": "immunostaining reaction of GluA1 in CA1", "setting": "MAP2, GluA1, GluA2, DCX; HFD mice with PER treatment", "result": "decreased"}, {"measurement": "double cortin positive cells", "setting": "MAP2, GluA1, GluA2, DCX; HFD mice with PER, DG", "result": "increase"}, {"measurement": "GluA1 expression in CA1 (immunoreactive region)", "setting": "MAP2, GluA1, GluA2, DCX; ob/ob mice with PER", "result": "restored"}, {"measurement": "ratio of GluA2/GluA1 (immunoreactive region)", "setting": "MAP2, GluA1, GluA2, DCX; ob/ob mice with PER", "result": "restored"}, {"measurement": "integrity of the dendritic arbors (MAP2 staining)", "setting": "MAP2, GluA1, GluA2, DCX; ob/ob mice, PER for 1 week or 12 weeks", "result": "significantly more restored by 12 week administration than by 1 week administration"}, {"measurement": "maturation of the protrusions of DCX-positive cells", "setting": "MAP2, GluA1, GluA2, DCX; ob/ob mice, PER for 12 weeks", "result": "progressed"}, {"measurement": "Aβ accumulation in DG, CA1 and cerebral cortex", "setting": "Aβ", "result": "decrease in Aβ accumulation"}, {"measurement": "Aβ42/Aβ40 ratio of the culture supernatant", "setting": "Aβ42/Aβ40", "result": "significantly increased"}, {"measurement": "novel object recognition", "setting": "NL-G-F mice", "result": "significantly distinguish"}, {"measurement": "social memory", "setting": "HFD-fed mice", "result": "restored social memory disturbance"}, {"measurement": "epileptiform reactions induced by bicculine", "setting": "NL(−/−) mice", "result": "almost completely abolished"}]}
